{"source": "patent US20090298938A1", "about": "“USE OF SEMI SYNTHETIC ANALOGUES OF BOSWELLIC ACIDS FOR ANTICANCER ACTIVITY” (COUNCIL OF SCIENTIFIC & INDUSTRIAL RESEARCH, priority 2008, published 2009)", "format_in_all_cases": "cell-based, human", "key": {"[1]": {"tested_on": "HL-60 cells", "experiment": "Reactive oxygen species (peroxides), DCFH-DA flow cytometry", "experimental": "FIG. 4. Boswellic acid analogs produce early generation of reactive oxygen species. In order to determine the intracellular content of intracellular peroxides, HL-60 cells in both treated and untreated control groups of 1×10^6 cells were incubated with […] of DCFH-DA for 30 min prior to termination of a 6 hr treatment with the indicated concentrations of compound designated “c” which is the compound of formula 1, wherein R3=COCH2CH2CH3, […], R4+R5=O. Treatment with the compound designated “c” was associated with an increase in DCFH-DA derived fluorescence. The compound of formula 1 where R3=COCH2CH2CH3, […], R4+R5=O was taken as a prototype to investigate the mechanism of cell death mediated by induction of apoptosis. […] At the highest concentration used the peroxide generation was relatively of low order because of ROS associated cell death. BSO was used as positive control. The endogenous generation of peroxides was measured using a non-fluorescent probe DCFH-DA which upon entering the cell is deesterified to DCFH which is oxidized by the reactive oxygen species to a fluorescent product DCF that remains entrapped within the cells offering analysis by flow cytometery [[…] et al, 2006]. […] Thereafter cells were washed and stained for 1 hr with DCFH-DA and analysed on flow cytometer. […]"}, "[2]": {"tested_on": "HL-60 cells", "experiment": "Endogenous nitric oxide, DAF-2-DA flow cytometry", "conditions": "HL-60, 4 hr", "experimental": "FIG. 5. Copious early endogenous formation of nitric oxide by compound of formula 1 where R3=COCH2CH2CH3, R1=H, R4+R5=O in HL-60 cells. Nitric Oxide (NO) production was measured by flow cytometry in the FL1 channel using DAF-2-DA (an NO probe) after exposing HL-60 cells for 4 hours to indicated concentrations of SS-145. To investigate the contribution of iNOS to NO production, cells were pre-incubated with iNOS inhibitor sMIT (0.5 mM) for 1 hour prior to treatment with a compound designated “c” (a compound of formula 1 wherein R3=COCH2CH2CH3, R1=H, R4+R5=O). NO and peroxide generation are the early events leading to oxidative stress in the cells. […] It is possible that NO stimulated mitochondrial superoxide generation which together with NO may form peroxynitrite, a dangerous species in producing oxidative damage to the cells and responsible for production of apoptosis\nMeasurement of in situ NO generation involved the use of a fluorescent probe diaminofluoresceine-2-diacetate, which is permeated easily into the cells. Once inside the cell it binds NO soon it is formed and emits fluorescence [H. Kojima et al, 1998]. For this purpose, the HL-60 cells were incubated with DAF-2-DA for 30 min before being incubated with the indicated concentration of SS-145 for 4 hr. Cells were analyzed on flow cytometer in FL-1 channel for NO. […]"}, "[3]": {"tested_on": "caspase-3 in Molt-4 cells", "experiment": "Caspase-3 activation, colorimetric, Molt-4", "conditions": "6 hr", "experimental": "(§1) FIGS. 8A-8B. Caspase activation in HL-60 cells by boswellic acid analogs. FIG. 8A depicts the results of a colorimetric evaluation of caspase-3 activation in HL-60 cells and Molt-4 cells. Cells were treated with a compound designated “c” (formula 1 compound wherein R3=COCH2CH2CH3, […] and R4+R5=O) at concentrations indicated for 6 hours. Caspase-3 inhibitor (DEVD-fmk) was added 30 min prior to the addition of caspase-3 substrate (DEVD-pNA) to the lysate. Data are mean of triplicate determinations with coefficients of variation less than 10%. […] Caspase-9 inhibitor LEHD-CHO was added 30 min prior to the addition of caspase-9 substrate to validate the specificity of caspase-9. Caspase-9 activity was measured fluorometrically. Data are a mean of triplicate determinations with a coefficient of variation of less than 10%. Caspases are important cysteine-proteases that are involved in the cleavage of DNA specifically producing 180 bp DNA fragments. The enzymes act through different signaling pathways. […] Caspase-9 activity was determined fluorometrically and caspase-3 colorimetrically using kits and the instruction provided by the manufacturer (BD pharmingen, USA). Caspase-3 activity was determined in both Molt-4 and HL-60 leukemia cells while caspase-9 was determined in HL-60 cells."}, "[4]": {"tested_on": "caspase-9 in HL-60 cells", "experiment": "Caspase-9 activation, fluorometric, HL-60", "conditions": "HL-60, 50 μM, 6 hours", "experimental": "as §1"}, "[5]": {"tested_on": "caspase-3 in HL-60 cells", "experiment": "Caspase-3 activation, colorimetric, HL-60", "experimental": "as §1"}}, "note": "“Also recorded” adds a separate entry of the source."}
{"smiles": "CCCC(=O)OC1CCC2(C)C(CCC3(C)C2C(=O)C=C2C4C(C)C(C)CCC4(C)CCC23C)C1(C)C(=O)O", "note": "(stereo not shown) [R3=COCH2CH2CH3, R1=H, R4+R5=O]", "values": [{"measurement": "peroxide positive cell population", "setting": "[1]; HL-60, 50 μg/ml, 6 hr", "value": 79, "unit": "%"}, {"measurement": "ROS / peroxide generation (concentration dependence)", "setting": "[1]; HL-60, 6 hr, DCFH-DA", "value": "concentration related increase in ROS generation; also recorded: dose dependent increase"}, {"measurement": "nitric oxide generation", "setting": "[2]", "value": "early generation of NO; also recorded: all the cells formed NO within 6 hr irrespective of the concentration"}, {"measurement": "caspase-3 activation", "setting": "[3]", "value": "about 50%"}, {"measurement": "caspase-9 activity stimulation", "setting": "[4]", "value": "4-5 fold"}, {"measurement": "caspase-3 stimulation", "setting": "[5]; 50 μM", "value": "about 50%"}, {"measurement": "caspase-3 activation", "setting": "[5]; HL-60 cells, 6 hr", "value": "about 50%"}]}
